Assay results from the supplement of paper PMC10307832.

What was measured:
Assay in all cases: relative viability (nuclei count vs DMSO), 5 days (fraction); higher = more cells survive
ALW-II-49-7 + Tozasertib = compound: Cc1ccc(C(=O)Nc2cccc(C(F)(F)F)c2)cc1Nc1cncc(C(N)=O)c1 [ALW-II-49-7] + Cc1cc(Nc2cc(N3CCN(C)CC3)nc(Sc3ccc(NC(=O)C4CC4)cc3)n2)n[nH]1 [Tozasertib] (partner 0.1 µM)
Procedure, shortened: (§1)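 Each reported value is a median over duplicate plates. It expresses relative viability: treated-well nuclei count divided by vehicle-well nuclei count. Lung cancer cell lines in 1536-well plates were dosed by pin tool a day after seeding, alone with one drug or with a fixed anchor-drug dose plus five library-drug doses (not always all listed) in √10 steps, and nuclei were counted after 5 days.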

Dasatinib + Vorinostat = compound: Cc1nc(Nc2ncc(C(=O)Nc3c(C)cccc3Cl)s2)cc(N2CCN(CCO)CC2)n1 [Dasatinib] + O=C(CCCCCCC(=O)Nc1ccccc1)NO [Vorinostat] (partner 1 µM)
Procedure, shortened: as §1

Dasatinib + Decitabine = compound: Cc1nc(Nc2ncc(C(=O)Nc3c(C)cccc3Cl)s2)cc(N2CCN(CCO)CC2)n1 [Dasatinib] + Nc1ncn([C@H]2C[C@H](O)[C@@H](CO)O2)c(=O)n1 [Decitabine] (partner 2 µM)
Procedure, shortened: as §1

Dasatinib + Lapatinib = compound: Cc1nc(Nc2ncc(C(=O)Nc3c(C)cccc3Cl)s2)cc(N2CCN(CCO)CC2)n1 [Dasatinib] + CS(=O)(=O)CCNCc1ccc(-c2ccc3ncnc(Nc4ccc(OCc5cccc(F)c5)c(Cl)c4)c3c2)o1 [Lapatinib] (partner 2 µM)
Procedure, shortened: as §1

Cell Line	relative viability (ALW-II-49-7 + Tozasertib; first compound 0.08 µM)	relative viability (ALW-II-49-7 + Tozasertib; first compound 0.253 µM)	relative viability (ALW-II-49-7 + Tozasertib; first compound 0.8 µM)	relative viability (ALW-II-49-7 + Tozasertib; first compound 2.53 µM)	relative viability (ALW-II-49-7 + Tozasertib; first compound 8 µM)	relative viability (Dasatinib + Vorinostat; first compound 0.005 µM)	relative viability (Dasatinib + Vorinostat; first compound 0.01581 µM)	relative viability (Dasatinib + Vorinostat; first compound 0.05 µM)	relative viability (Dasatinib + Vorinostat; first compound 0.1581 µM)	relative viability (Dasatinib + Vorinostat; first compound 0.5 µM)	relative viability (Dasatinib + Decitabine; first compound 0.005 µM)	relative viability (Dasatinib + Decitabine; first compound 0.01581 µM)	relative viability (Dasatinib + Decitabine; first compound 0.05 µM)	relative viability (Dasatinib + Decitabine; first compound 0.1581 µM)	relative viability (Dasatinib + Decitabine; first compound 0.5 µM)	relative viability (Dasatinib + Lapatinib; first compound 0.005 µM)	relative viability (Dasatinib + Lapatinib; first compound 0.01581 µM)	relative viability (Dasatinib + Lapatinib; first compound 0.05 µM)	relative viability (Dasatinib + Lapatinib; first compound 0.1581 µM)	relative viability (Dasatinib + Lapatinib; first compound 0.5 µM)
201T	0.886	0.948	0.941	0.902	0.92	0.912	0.723	0.792	0.649	0.346	0.834	0.795	0.802	0.646	0.416	0.931	0.81	0.924	0.875	0.486
A549	–	–	–	–	–	–	–	–	–	–	0.222	0.236	0.307	0.173	0.178	0.955	0.824	0.83	0.673	0.194
A-427	0.18	0.204	0.21	0.177	0.204	0.831	0.766	0.793	0.517	0.495	0.616	0.513	0.543	0.491	0.493	0.89	1.06	0.893	0.646	0.551
ABC-1	0.172	0.179	0.162	0.197	0.191	1.18	1.17	0.731	0.787	0.706	1.31	0.953	1.18	1.06	0.975	0.993	0.896	1.38	0.872	0.693
BEN	0.331	0.524	0.512	0.515	0.632	0.577	0.445	0.417	0.371	0.368	0.667	0.598	0.567	0.442	0.387	0.617	0.362	0.432	0.312	0.336
CAL-12T	0.289	0.406	0.389	0.274	0.308	1.02	0.846	0.708	0.477	0.225	–	–	–	–	–	0.624	0.551	0.597	0.252	0.172
COR-L23	0.206	0.193	0.17	0.15	0.15	0.419	0.342	0.323	0.237	0.24	0.428	0.42	0.386	0.298	0.307	0.983	0.853	0.955	0.74	0.737
COR-L 105	0.38	0.263	0.346	0.336	0.315	0.891	0.58	0.683	0.445	0.363	0.599	0.604	0.478	0.445	0.297	0.352	0.301	0.28	0.256	0.318
Calu-6	–	–	–	–	–	–	–	–	–	–	–	–	–	–	–	0.924	0.776	0.848	0.642	0.59
ChaGo-K-1	0.248	0.238	0.22	0.212	0.2	0.735	0.737	0.704	0.565	0.47	0.545	0.5	0.543	0.49	0.416	–	–	–	–	–
EBC-1	–	–	–	–	–	–	–	–	–	–	–	–	–	–	–	0.248	0.217	0.236	0.233	0.252
EKVX	0.323	0.413	0.344	0.322	0.381	0.725	0.642	0.6	0.355	0.267	0.307	0.291	0.304	0.187	0.146	0.205	0.165	0.149	0.123	0.0913
EMC-BAC-2	0.267	0.273	0.276	0.203	0.199	0.392	0.308	0.273	0.22	0.172	0.982	0.946	0.824	0.758	0.712	0.936	0.708	0.613	0.667	0.334
EPLC-272H	0.127	–	0.257	0.298	0.27	0.539	0.401	0.335	0.276	0.162	0.39	0.392	0.381	0.295	0.153	0.866	0.913	0.938	0.79	0.346
H3255	0.724	0.613	0.675	0.625	0.42	0.826	0.789	0.777	0.828	0.37	0.66	0.573	0.568	0.493	0.311	0.303	0.212	0.208	0.155	0.204
HARA	0.0918	0.121	0.114	0.0912	0.0839	0.508	0.474	0.438	0.272	0.274	0.578	0.47	0.549	0.305	0.221	0.851	0.701	0.505	0.201	0.137
HCC-15	0.325	0.367	0.272	0.328	0.333	0.85	0.719	0.842	0.655	0.669	0.609	0.606	0.496	0.428	0.466	0.887	0.942	0.846	0.764	0.658
HCC-44	–	0.908	0.874	0.109	0.664	1.26	1.03	1.32	1.16	0.867	1.04	0.915	1.04	0.886	0.624	1.03	0.942	1.07	0.844	0.555
HCC-78	0.482	0.396	–	0.43	0.505	0.373	0.354	0.324	0.336	0.219	0.615	0.608	0.599	0.429	0.326	0.359	0.694	0.696	0.478	0.19
HCC-366	0.168	0.17	0.0962	0.0839	0.0614	0.377	0.225	0.312	0.238	0.22	0.354	0.262	0.247	0.188	0.215	0.99	0.713	0.695	0.446	0.337

Cell Line	relative viability (ALW-II-49-7 + Tozasertib; first compound 0.08 µM)	relative viability (ALW-II-49-7 + Tozasertib; first compound 0.253 µM)	relative viability (ALW-II-49-7 + Tozasertib; first compound 0.8 µM)	relative viability (ALW-II-49-7 + Tozasertib; first compound 2.53 µM)	relative viability (ALW-II-49-7 + Tozasertib; first compound 8 µM)	relative viability (Dasatinib + Vorinostat; first compound 0.005 µM)	relative viability (Dasatinib + Vorinostat; first compound 0.01581 µM)	relative viability (Dasatinib + Vorinostat; first compound 0.05 µM)	relative viability (Dasatinib + Vorinostat; first compound 0.1581 µM)	relative viability (Dasatinib + Vorinostat; first compound 0.5 µM)	relative viability (Dasatinib + Decitabine; first compound 0.005 µM)	relative viability (Dasatinib + Decitabine; first compound 0.01581 µM)	relative viability (Dasatinib + Decitabine; first compound 0.05 µM)	relative viability (Dasatinib + Decitabine; first compound 0.1581 µM)	relative viability (Dasatinib + Decitabine; first compound 0.5 µM)	relative viability (Dasatinib + Lapatinib; first compound 0.005 µM)	relative viability (Dasatinib + Lapatinib; first compound 0.01581 µM)	relative viability (Dasatinib + Lapatinib; first compound 0.05 µM)	relative viability (Dasatinib + Lapatinib; first compound 0.1581 µM)	relative viability (Dasatinib + Lapatinib; first compound 0.5 µM)
HCC-827	0.427	0.449	0.4	0.397	0.415	0.787	0.744	0.742	0.615	0.157	0.35	0.271	0.309	0.224	0.159	0.173	0.18	0.139	0.16	0.131
HOP-62	0.278	0.341	0.368	0.358	0.289	0.738	0.606	0.642	0.293	0.132	0.218	0.227	0.261	0.23	0.191	1.02	0.971	0.789	0.983	0.337
IA-LM	–	–	–	–	–	1.13	0.89	1.03	0.691	0.538	–	–	–	–	–	0.996	0.828	1.08	0.55	0.436
LC-2-ad	0.405	0.428	0.431	0.209	0.434	0.723	0.675	0.75	0.493	0.337	0.745	0.822	0.781	0.744	0.393	0.648	0.876	0.952	0.699	0.186
LCLC-97TM1	0.151	0.188	0.192	0.168	0.18	0.91	0.829	0.905	0.523	0.35	0.203	0.224	0.283	0.177	0.144	1.2	1.2	0.772	0.904	0.362
LCLC-103H	0.451	0.453	0.486	0.451	0.389	0.852	0.787	0.694	0.582	0.293	0.69	0.7	0.737	0.625	0.446	–	–	–	–	–
LK-2	–	0.191	0.2	0.175	0.151	0.314	0.288	0.21	0.19	0.148	0.265	0.308	0.174	0.159	0.174	0.772	0.612	0.412	0.313	0.283
LOU-NH91	0.622	0.468	0.633	0.631	0.575	0.822	0.846	0.687	0.583	0.429	0.83	0.819	0.743	0.66	0.421	0.673	0.592	0.571	0.503	0.414
LU99A	0.273	0.29	0.252	0.269	0.249	0.464	0.448	0.515	0.366	0.288	0.827	0.819	0.833	0.655	0.46	0.954	0.838	0.914	0.628	0.489
NCI-H441	0.709	0.512	0.751	0.54	0.478	0.778	0.651	0.887	0.813	0.581	0.276	0.232	0.272	0.202	0.19	–	–	–	–	–
NCI-H522	0.622	0.499	0.554	0.507	0.647	1.03	0.822	0.962	0.788	0.84	0.745	0.767	0.671	0.655	0.61	–	–	–	–	–
NCI-H1299	–	–	–	–	–	–	–	–	–	–	–	–	–	–	–	0.971	0.971	1.1	0.529	0.299
NCI-H1563	–	–	–	–	–	–	–	–	–	–	–	–	–	–	–	0.868	0.708	0.758	0.656	0.506
NCI-H1623	0.339	0.402	0.395	0.396	0.579	–	–	–	–	–	–	–	–	–	–	–	–	–	–	–
NCI-H1648	0.382	0.236	0.243	0.313	0.382	0.374	0.481	0.606	0.266	0.179	0.494	0.477	0.506	0.457	0.241	–	–	–	–	–
NCI-H1703	–	–	–	–	–	–	–	–	–	–	–	–	–	–	–	0.638	0.326	0.429	0.185	0.16
NCI-H1792	–	–	–	–	–	–	–	–	–	–	0.544	0.51	0.469	0.342	0.178	0.885	0.859	0.907	0.673	0.364
NCI-H2228	0.261	0.263	0.277	0.171	0.22	0.618	0.564	0.333	0.387	0.388	–	–	–	–	–	0.829	1.06	0.705	0.731	0.551
NCI-H2342	0.437	0.409	0.478	0.496	0.436	0.734	0.654	0.603	0.458	0.339	0.685	0.598	0.632	0.51	0.321	–	–	–	–	–
SW 900	0.573	0.568	0.479	0.279	0.377	0.356	0.282	0.289	0.163	0.192	0.46	0.39	0.398	0.413	0.23	–	–	–	–	–
